Measured values taken from paper PMC5362750, “Discovery of Potent, Selective, and Orally Bioavailable Small-Molecule Modulators of the Mediator Complex-Associated Kinases CDK8 and CDK19” (Journal of Medicinal Chemistry, 2016).
Values after ≈ are worked out from the molar mass of the structure shown.

Tests used:
[1] = target: sst1 (h) (Homo sapiens, UniProt P30872); assay: CEREP binding assay; conditions: agonist radioligand, read-out: % Inhibition of Control Specific Binding
[2] = target: JNK3 (Homo sapiens, UniProt P53779); assay: Kinase panel (Millipore); format: biochemical; conditions: 1 µM, ATP at Km
[3] = target: EPHA2 (Homo sapiens, UniProt P29317); assay: Kinase panel (Millipore); format: biochemical; conditions: 1 µM, ATP at Km
[4] = target: T1, KDR (Homo sapiens, UniProt P35968); assay: Kinase panel (Millipore); format: biochemical; conditions: 1 µM, ATP at Km
T1 construct: purchased Millipore (KinaseProfiler) kinase panel

[5] = target: T2, EPHA8 (Homo sapiens, UniProt P29322); assay: Kinase panel (Millipore); format: biochemical; conditions: 1 µM, ATP at Km
T2 construct: purchased Millipore (KinaseProfiler) kinase panel

[6] = target: T3, MSK2 (Homo sapiens, UniProt O75676); assay: Kinase panel (Millipore); format: biochemical; conditions: 1 µM, ATP at Km
T3 construct: purchased Millipore (KinaseProfiler) kinase panel

[7] = target: T4, MST2 (Homo sapiens, UniProt Q13188); assay: Kinase panel (Millipore); format: biochemical; conditions: 1 µM, ATP at Km
T4 construct: purchased Millipore (KinaseProfiler) kinase panel

[8] = target: T5, IKKALPHA (Homo sapiens, UniProt O15111); assay: Kinase panel (Millipore); format: biochemical; conditions: 1 µM, ATP at Km
T5 construct: purchased Millipore (KinaseProfiler) kinase panel

[9] = target: NEK2 (Homo sapiens, UniProt P51955); assay: Kinase panel (Millipore); format: biochemical; conditions: 1 µM, ATP at Km
[10] = target: T6, IKKBETA (Homo sapiens, UniProt O14920); assay: Kinase panel (Millipore); format: biochemical; conditions: 1 µM, ATP at Km
T6 construct: purchased Millipore (KinaseProfiler) kinase panel

[11] = target: T7, NEK11 (Homo sapiens, UniProt Q8NG66); assay: Kinase panel (Millipore); format: biochemical; conditions: 1 µM, ATP at Km
T7 construct: purchased Millipore (KinaseProfiler) kinase panel

[12] = target: T8, P70S6K (Homo sapiens, UniProt P23443); assay: Kinase panel (Millipore); format: biochemical; conditions: 1 µM, ATP at Km
T8 construct: purchased Millipore (KinaseProfiler) kinase panel

[13] = target: RSK2 (Homo sapiens, UniProt P51812); assay: Kinase panel (Millipore); format: biochemical; conditions: 1 µM, ATP at Km
[14] = target: SAPK2B (Homo sapiens, UniProt Q15759); assay: Kinase panel (Millipore); format: biochemical; conditions: 1 µM, ATP at Km
[15] = target: T9, RSK4 (Homo sapiens, UniProt Q9UK32); assay: Kinase panel (Millipore); format: biochemical; conditions: 1 µM, ATP at Km
T9 construct: purchased Millipore (KinaseProfiler) kinase panel

[16] = target: T10, SGK (Homo sapiens, UniProt O00141); assay: Kinase panel (Millipore); format: biochemical; conditions: 1 µM, ATP at Km
T10 construct: purchased Millipore (KinaseProfiler) kinase panel

[17] = target: PIM-1 (Homo sapiens, UniProt P11309); assay: Kinase panel (Millipore); format: biochemical; conditions: 1 µM, ATP at Km
[18] = target: PKA (Homo sapiens, UniProt P17612); assay: Kinase panel (Millipore); format: biochemical; conditions: 1 µM, ATP at Km
[19] = target: T11, SIK (Homo sapiens, UniProt P57059); assay: Kinase panel (Millipore); format: biochemical; conditions: 1 µM, ATP at Km
T11 construct: purchased Millipore (KinaseProfiler) kinase panel

[20] = target: T12, TAO2 (Homo sapiens, UniProt Q9UL54); assay: Kinase panel (Millipore); format: biochemical; conditions: 1 µM, ATP at Km
T12 construct: purchased Millipore (KinaseProfiler) kinase panel

[21] = target: PKBALPHA (Homo sapiens, UniProt P31749); assay: Kinase panel (Millipore); format: biochemical; conditions: 1 µM, ATP at Km
[22] = target: T13, PKCEPSILON (Homo sapiens, UniProt Q02156); assay: Kinase panel (Millipore); format: biochemical; conditions: 1 µM, ATP at Km
T13 construct: purchased Millipore (KinaseProfiler) kinase panel

[23] = target: T14, PKCIOTA (Homo sapiens, UniProt P41743); assay: Kinase panel (Millipore); format: biochemical; conditions: 1 µM, ATP at Km
T14 construct: purchased Millipore (KinaseProfiler) kinase panel

[24] = target: T15, TRKB (Homo sapiens, UniProt Q16620); assay: Kinase panel (Millipore); format: biochemical; conditions: 1 µM, ATP at Km
T15 construct: purchased Millipore (KinaseProfiler) kinase panel

[25] = target: T16, PKCMU (Homo sapiens, UniProt Q15139); assay: Kinase panel (Millipore); format: biochemical; conditions: 1 µM, ATP at Km
T16 construct: purchased Millipore (KinaseProfiler) kinase panel

[26] = target: PKG1ALPHA (Homo sapiens, UniProt Q13976); assay: Kinase panel (Millipore); format: biochemical; conditions: 1 µM, ATP at Km
[27] = target: T17, PRK2 (Homo sapiens, UniProt Q16513); assay: Kinase panel (Millipore); format: biochemical; conditions: 1 µM, ATP at Km
T17 construct: purchased Millipore (KinaseProfiler) kinase panel

[28] = target: MTOR (Homo sapiens, UniProt P42345); assay: Kinase panel (Millipore); format: biochemical; conditions: 1 µM, ATP at Km
[29] = target: T18, IGF-1R, ACTIVATED (Homo sapiens, UniProt P08069); assay: Kinase panel (Millipore); format: biochemical; conditions: 1 µM, ATP at Km
T18 construct: purchased Millipore (KinaseProfiler) kinase panel

[30] = 120 min, pH 7.4
[31] = test system: TR (TH); conditions: 10 µM, agonist radioligand
[32] = test system: Ca2+ channel (L, diltiazem site) (benzothiazepines); conditions: 10 µM, antagonist radioligand
[33] = test system: RY3 (ryanodine); conditions: 10 µM, agonist radioligand
[34] = target: CDK2/CYCLINE (Homo sapiens, UniProt P24941); conditions: 1 µM, ATP at Km
[35] = target: […](V561D) (Homo sapiens, UniProt P16234, V561D); conditions: 1 µM, ATP at Km
[36] = target: ABL (H396P) (Homo sapiens, UniProt P00519, H396P); conditions: 1 µM, ATP at Km
[37] = target: cMET (Y1248C) (Homo sapiens, UniProt P08581, Y1230C); conditions: 1 µM, ATP at Km
[38] = in vivo; conditions: female, NMRI, mouse, po, 0.5 mg/kg
[39] = in vitro; conditions: human, Caco-2, pH 7.4
[40] = target: M4 (h) (Homo sapiens, UniProt P08173); assay: biochemical; conditions: read-out: % Inhibition of Control Specific Binding
[41] = target: 5-HT2A (h) (Homo sapiens, UniProt P28223); assay: biochemical; conditions: read-out: % Inhibition of Control Specific Binding

T18 sequence (P08069 31-1367): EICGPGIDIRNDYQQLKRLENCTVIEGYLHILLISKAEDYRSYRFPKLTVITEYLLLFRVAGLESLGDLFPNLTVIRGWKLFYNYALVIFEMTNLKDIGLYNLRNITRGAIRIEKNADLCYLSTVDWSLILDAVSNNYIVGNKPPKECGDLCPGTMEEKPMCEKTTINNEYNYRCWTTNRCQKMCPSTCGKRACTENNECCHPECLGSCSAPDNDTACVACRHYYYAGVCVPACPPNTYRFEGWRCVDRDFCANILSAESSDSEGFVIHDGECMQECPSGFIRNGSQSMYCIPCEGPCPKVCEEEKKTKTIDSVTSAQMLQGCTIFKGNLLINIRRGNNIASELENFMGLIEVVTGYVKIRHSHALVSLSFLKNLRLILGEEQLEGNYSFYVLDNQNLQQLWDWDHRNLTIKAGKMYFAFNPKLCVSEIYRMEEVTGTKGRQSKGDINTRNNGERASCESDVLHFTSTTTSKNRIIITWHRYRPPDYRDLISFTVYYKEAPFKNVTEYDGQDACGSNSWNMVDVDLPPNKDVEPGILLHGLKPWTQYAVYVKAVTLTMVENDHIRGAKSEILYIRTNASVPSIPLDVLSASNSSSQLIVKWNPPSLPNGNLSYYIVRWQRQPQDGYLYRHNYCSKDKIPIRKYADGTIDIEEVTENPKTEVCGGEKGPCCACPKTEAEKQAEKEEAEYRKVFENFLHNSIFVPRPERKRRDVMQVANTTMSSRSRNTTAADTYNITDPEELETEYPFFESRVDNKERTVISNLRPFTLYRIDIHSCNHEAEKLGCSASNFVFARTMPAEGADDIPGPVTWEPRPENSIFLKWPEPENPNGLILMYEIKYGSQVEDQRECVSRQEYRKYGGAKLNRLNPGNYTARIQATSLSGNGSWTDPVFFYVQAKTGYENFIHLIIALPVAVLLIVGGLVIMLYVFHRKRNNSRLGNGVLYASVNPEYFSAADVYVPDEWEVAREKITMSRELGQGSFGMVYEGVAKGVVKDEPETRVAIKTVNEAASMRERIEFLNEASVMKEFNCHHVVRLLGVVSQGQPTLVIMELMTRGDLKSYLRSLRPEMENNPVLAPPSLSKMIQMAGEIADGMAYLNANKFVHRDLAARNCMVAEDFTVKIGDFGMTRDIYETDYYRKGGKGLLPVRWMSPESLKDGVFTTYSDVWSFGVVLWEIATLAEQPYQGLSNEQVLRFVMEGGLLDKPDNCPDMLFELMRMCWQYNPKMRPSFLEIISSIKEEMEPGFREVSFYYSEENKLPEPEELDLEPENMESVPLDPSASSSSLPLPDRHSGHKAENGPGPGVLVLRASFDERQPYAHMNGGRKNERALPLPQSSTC
Sequence of […](V561D) (P16234 24-1089 V561D): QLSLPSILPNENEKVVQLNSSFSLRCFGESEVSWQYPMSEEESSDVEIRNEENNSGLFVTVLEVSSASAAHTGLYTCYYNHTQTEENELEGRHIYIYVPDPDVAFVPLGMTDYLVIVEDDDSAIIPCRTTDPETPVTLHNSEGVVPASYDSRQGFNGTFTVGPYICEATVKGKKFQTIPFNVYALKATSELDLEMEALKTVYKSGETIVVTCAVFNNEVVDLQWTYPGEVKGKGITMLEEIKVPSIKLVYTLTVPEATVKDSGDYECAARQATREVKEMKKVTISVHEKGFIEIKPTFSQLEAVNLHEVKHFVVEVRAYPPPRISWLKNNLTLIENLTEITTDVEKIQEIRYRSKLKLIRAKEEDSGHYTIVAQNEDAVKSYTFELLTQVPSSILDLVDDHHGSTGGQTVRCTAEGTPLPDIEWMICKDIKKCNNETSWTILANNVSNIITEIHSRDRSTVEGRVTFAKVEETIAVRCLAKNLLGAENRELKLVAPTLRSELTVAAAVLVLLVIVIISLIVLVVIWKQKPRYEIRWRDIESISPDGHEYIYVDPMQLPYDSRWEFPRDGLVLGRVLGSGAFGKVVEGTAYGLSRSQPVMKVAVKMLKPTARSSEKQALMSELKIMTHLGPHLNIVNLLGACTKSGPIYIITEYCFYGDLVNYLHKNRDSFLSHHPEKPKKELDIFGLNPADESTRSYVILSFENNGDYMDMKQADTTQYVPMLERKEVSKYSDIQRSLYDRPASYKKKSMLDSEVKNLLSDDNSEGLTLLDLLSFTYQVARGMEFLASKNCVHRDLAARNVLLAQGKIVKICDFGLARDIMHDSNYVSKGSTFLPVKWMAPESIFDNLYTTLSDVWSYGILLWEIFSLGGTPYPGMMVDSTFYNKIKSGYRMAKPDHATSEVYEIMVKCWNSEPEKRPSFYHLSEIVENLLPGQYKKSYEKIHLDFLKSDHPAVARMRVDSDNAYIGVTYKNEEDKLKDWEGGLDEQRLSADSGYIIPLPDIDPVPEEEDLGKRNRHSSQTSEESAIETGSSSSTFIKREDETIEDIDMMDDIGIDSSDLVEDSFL
Sequence of PKBALPHA (P31749 whole entry): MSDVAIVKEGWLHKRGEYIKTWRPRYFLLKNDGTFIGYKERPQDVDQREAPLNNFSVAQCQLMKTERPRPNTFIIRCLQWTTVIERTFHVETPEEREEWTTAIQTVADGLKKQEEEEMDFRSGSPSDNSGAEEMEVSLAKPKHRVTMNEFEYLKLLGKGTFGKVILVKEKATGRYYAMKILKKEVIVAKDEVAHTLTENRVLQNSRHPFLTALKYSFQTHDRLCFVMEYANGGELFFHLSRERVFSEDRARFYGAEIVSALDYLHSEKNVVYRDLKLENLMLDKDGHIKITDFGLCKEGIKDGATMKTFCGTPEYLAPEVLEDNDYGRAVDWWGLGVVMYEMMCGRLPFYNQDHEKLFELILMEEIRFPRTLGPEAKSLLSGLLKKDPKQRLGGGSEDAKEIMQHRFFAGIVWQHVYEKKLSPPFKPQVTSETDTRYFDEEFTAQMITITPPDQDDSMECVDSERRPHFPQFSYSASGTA
T6 sequence (O14920 whole entry): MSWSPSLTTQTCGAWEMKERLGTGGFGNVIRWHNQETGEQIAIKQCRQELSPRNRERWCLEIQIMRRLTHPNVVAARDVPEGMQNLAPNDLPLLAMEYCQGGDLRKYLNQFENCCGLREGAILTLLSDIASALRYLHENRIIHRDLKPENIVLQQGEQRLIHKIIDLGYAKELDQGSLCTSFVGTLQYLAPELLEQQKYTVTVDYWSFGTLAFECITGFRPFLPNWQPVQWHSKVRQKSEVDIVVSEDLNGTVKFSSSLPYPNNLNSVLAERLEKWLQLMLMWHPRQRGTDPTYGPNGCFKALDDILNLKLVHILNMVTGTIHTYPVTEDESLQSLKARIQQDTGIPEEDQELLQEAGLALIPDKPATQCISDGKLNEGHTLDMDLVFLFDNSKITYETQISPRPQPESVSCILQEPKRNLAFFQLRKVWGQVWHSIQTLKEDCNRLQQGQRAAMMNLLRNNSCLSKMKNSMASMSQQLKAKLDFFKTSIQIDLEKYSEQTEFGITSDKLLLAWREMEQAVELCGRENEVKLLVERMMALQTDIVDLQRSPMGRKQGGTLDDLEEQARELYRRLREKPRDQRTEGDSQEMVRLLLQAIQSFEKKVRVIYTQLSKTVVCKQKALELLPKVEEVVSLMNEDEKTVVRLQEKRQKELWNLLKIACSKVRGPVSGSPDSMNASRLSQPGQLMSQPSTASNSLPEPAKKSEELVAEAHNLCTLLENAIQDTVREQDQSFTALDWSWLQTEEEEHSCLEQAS
Sequence of PIM-1 (P11309 whole entry): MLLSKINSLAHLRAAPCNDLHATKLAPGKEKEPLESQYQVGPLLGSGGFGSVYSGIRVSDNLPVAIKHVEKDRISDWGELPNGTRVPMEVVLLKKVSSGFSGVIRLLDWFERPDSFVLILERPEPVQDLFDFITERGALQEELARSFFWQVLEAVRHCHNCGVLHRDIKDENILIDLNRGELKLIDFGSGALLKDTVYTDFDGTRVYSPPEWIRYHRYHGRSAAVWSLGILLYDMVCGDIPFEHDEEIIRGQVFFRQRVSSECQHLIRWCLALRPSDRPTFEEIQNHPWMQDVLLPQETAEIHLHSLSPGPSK
T13 sequence (Q02156 whole entry): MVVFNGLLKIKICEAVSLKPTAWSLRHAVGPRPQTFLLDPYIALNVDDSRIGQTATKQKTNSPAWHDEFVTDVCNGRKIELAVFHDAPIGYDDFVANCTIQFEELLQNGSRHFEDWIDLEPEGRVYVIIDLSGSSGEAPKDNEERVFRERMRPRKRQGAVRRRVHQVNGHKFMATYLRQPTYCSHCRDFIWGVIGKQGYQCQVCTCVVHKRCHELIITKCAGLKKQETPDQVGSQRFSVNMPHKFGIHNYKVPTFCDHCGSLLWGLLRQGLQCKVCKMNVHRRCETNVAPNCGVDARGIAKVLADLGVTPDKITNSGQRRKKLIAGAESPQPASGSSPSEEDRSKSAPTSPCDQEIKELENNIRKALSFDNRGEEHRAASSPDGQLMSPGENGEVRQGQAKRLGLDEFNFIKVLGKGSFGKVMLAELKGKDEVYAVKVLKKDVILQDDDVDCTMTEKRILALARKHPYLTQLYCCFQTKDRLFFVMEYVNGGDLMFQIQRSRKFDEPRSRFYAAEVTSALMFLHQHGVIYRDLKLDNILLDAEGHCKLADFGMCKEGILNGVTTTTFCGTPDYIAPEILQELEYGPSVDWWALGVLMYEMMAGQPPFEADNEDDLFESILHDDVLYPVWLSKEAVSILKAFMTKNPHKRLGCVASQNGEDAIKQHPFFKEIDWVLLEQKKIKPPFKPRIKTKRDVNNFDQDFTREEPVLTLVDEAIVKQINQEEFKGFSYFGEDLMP
Sequence of SAPK2B (Q15759 whole entry): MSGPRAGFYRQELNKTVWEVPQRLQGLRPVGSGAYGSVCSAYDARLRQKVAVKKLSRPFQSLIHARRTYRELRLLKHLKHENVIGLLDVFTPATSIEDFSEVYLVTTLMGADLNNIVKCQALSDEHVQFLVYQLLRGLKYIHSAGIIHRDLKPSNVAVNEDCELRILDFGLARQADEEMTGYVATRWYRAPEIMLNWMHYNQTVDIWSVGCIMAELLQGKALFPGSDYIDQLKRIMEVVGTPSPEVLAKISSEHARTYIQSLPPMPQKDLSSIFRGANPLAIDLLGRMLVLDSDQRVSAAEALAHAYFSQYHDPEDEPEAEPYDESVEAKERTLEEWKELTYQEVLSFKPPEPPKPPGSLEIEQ

With `Cn1ncc2cc(-c3cnc(N)c(Cl)c3N3CCC4(CCNC4=O)CC3)ccc21` [Compound 109, 8-(2-Amino-3-chloro-5-(1-methyl-1H-indazol-5-yl)pyridin-4-yl)-2,8-diazaspiro[4.5]decan-1-one] as the molecule, how does the inhibition at 10 µM [1] read?
Its inhibition at 10 µM is -4%.

And the “% effect” value [2]?
The value was -5%.

And the “% effect” value [3]?
The value was 5%.

What about the “% effect” value [4] of the same molecule?
The value was -26%.

And the “% effect” value [5]?
Its value is -9%.

And the “% effect” value [6]?
The value was 5%.

And the “% effect” value [7]?
The value was -11%.

What about the “% effect” value [8] of the same molecule?
The value was -17%.

And the “% effect” value [9]?
Its value is 4%.

What about the “% effect” value [10] of the same molecule?
The value was -2%.

And the “% effect” value [11]?
Its value is 12%.

What about the “% effect” value [12] of the same molecule?
Its value is -1%.

What about the “% effect” value [13] of the same molecule?
The value was -11%.

And the “% effect” value [14]?
Its value is -3%.

And the “% effect” value [15]?
Its value is -6%.

And the “% effect” value [16]?
Its value is 0%.

What about the “% effect” value [17] of the same molecule?
Its value is 2%.

And the “% effect” value [18]?
Its value is 25%.

What about the “% effect” value [19] of the same molecule?
Its value is -1%.

What about the “% effect” value [20] of the same molecule?
Its value is 2%.

And the “% effect” value [21]?
Its value is 3%.

What about the “% effect” value [22] of the same molecule?
The value was -21%.

And the “% effect” value [23]?
The value was -5%.

And the “% effect” value [24]?
Its value is -11%.

And the “% effect” value [25]?
Its value is 5%.

What about the “% effect” value [26] of the same molecule?
Its value is 23%.

And the “% effect” value [27]?
Its value is 1%.

What about the “% effect” value [28] of the same molecule?
The value was -3%.

What about the “% effect” value [29] of the same molecule?
The value was 1%.

What about the Cl (human) of the same molecule?
Its Cl is “∼0.36 L/h/kg”.

What about the F (human) of the same molecule?
The F was “∼70%”.

What about the Vd (human) of the same molecule?
Its Vd is “∼1.4 L/kg”.

What about the “clearance prediction, allometry with correction by fu and BrW” value (human) of the same molecule?
The value was 5.72 mL/min/kg.

What about the “clearance prediction, allometry with correction by fu and MLP” value (human) of the same molecule?
The value was 8.52 mL/min/kg.

What about the “clearance prediction, iviv from hepatocytes” value (human) of the same molecule?
Its value is 3.58 mL/min/kg.

And the “volume prediction, range of allometry methods” value (human)?
The value was 1.3 to 1.5 L/kg.

What about the t1/2 (human prediction) of the same molecule?
Its t1/2 is “∼2.7 h”.

What about the “Solubility Kinetic” value [30] of the same molecule?
The value was 137 µM (≈ 56.3 µg/mL).

And the “% Inhibition of Control Specific Binding” value [31]?
Its value is -13%.

And the “% Inhibition of Control Specific Binding” value [32]?
The value was 5%.

And the “% Inhibition of Control Specific Binding” value [33]?
The value was 1%.

And the “% effect” value [34]?
Its value is 3%.

And the “% effect” value [35]?
The value was 0%.

What about the “% effect” value [36] of the same molecule?
The value was -4%.

What about the “% effect” value [37] of the same molecule?
Its value is -3%.

What about the bioavailability [38] of the same molecule?
The bioavailability was 30%.

What about the Papp A→B at 2 h, 1 μM [39] of the same molecule?
Its Papp A→B at 2 h, 1 μM is 31.8 ×10⁻⁶ cm/s.

What about the inhibition at 10 µM [40] of the same molecule?
The inhibition at 10 µM was 22%.

And the inhibition at 10 µM [41]?
The inhibition at 10 µM was -10%.
